From PubChem BioAssay AID1259407 (Chemical Carcinogenesis Research Information System (CCRIS), 2018)
Calls of active or inactive are those of the source. No rule for the calls is given here.

System: CCRIS mutagenicity, Ames/micronucleus/aberration tests
Assay: CCRIS mutagenicity studies

Measured: mutagenic call

C=C(C)C(=O)OCCCC
inactive: Test System: AMES SALMONELLA TYPHIMURIUM, Strain/Indicator: TA98, Metabolic Activation: HAMSTER, LIVER, S-9, AROCLOR 1254 (10%), Method: PREINCUBATION inactive; negative | Test System: AMES SALMONELLA TYPHIMURIUM, Strain/Indicator: TA98, Metabolic Activation: NONE, Method: PREINCUBATION inactive; negative | Test System: AMES SALMONELLA TYPHIMURIUM, Strain/Indicator: TA98, Metabolic Activation: NONE, Method: STANDARD PLATE inactive; negative | Test System: AMES SALMONELLA TYPHIMURIUM, Strain/Indicator: TA98, Metabolic Activation: RAT LIVER S-9, PHENOBARBITAL AND BETA-NAPHTHOFLAVONE, Method: PREINCUBATION inactive; negative | Test System: AMES SALMONELLA TYPHIMURIUM, Strain/Indicator: TA98, Metabolic Activation: RAT, LIVER, S-9, AROCLOR 1254 (10%), Method: PREINCUBATION inactive; negative | Test System: AMES SALMONELLA TYPHIMURIUM, Strain/Indicator: TA98, Metabolic Activation: RAT, LIVER, S-9, AROCLOR 1254, Method: STANDARD PLATE inactive; negative | Test System: AMES SALMONELLA TYPHIMURIUM, Strain/Indicator: TA98, Metabolic Activation: RAT, LIVER, S-9, SODIUM PHENOBARBITAL, Method: STANDARD PLATE inactive; negative | Test System: AMES SALMONELLA TYPHIMURIUM, Strain/Indicator: TA100, Metabolic Activation: HAMSTER, LIVER, S-9, AROCLOR 1254 (10%), Method: PREINCUBATION inactive; negative | Test System: AMES SALMONELLA TYPHIMURIUM, Strain/Indicator: TA100, Metabolic Activation: NONE, Method: PREINCUBATION inactive; negative | Test System: AMES SALMONELLA TYPHIMURIUM, Strain/Indicator: TA100, Metabolic Activation: NONE, Method: STANDARD PLATE inactive; negative | Test System: AMES SALMONELLA TYPHIMURIUM, Strain/Indicator: TA100, Metabolic Activation: RAT LIVER S-9, PHENOBARBITAL AND BETA-NAPHTHOFLAVONE, Method: PREINCUBATION inactive; negative | Test System: AMES SALMONELLA TYPHIMURIUM, Strain/Indicator: TA100, Metabolic Activation: RAT, LIVER, S-9, AROCLOR 1254 (10%), Method: PREINCUBATION inactive; negative | Test System: AMES SALMONELLA TYPHIMURIUM, Strain/Indicator: TA100, Metabolic Activation: RAT, LIVER, S-9, AROCLOR 1254, Method: STANDARD PLATE inactive; negative | Test System: AMES SALMONELLA TYPHIMURIUM, Strain/Indicator: TA100, Metabolic Activation: RAT, LIVER, S-9, SODIUM PHENOBARBITAL, Method: STANDARD PLATE inactive; negative | Test System: AMES SALMONELLA TYPHIMURIUM, Strain/Indicator: TA1535, Metabolic Activation: HAMSTER, LIVER, S-9, AROCLOR 1254 (10%), Method: PREINCUBATION inactive; negative | Test System: AMES SALMONELLA TYPHIMURIUM, Strain/Indicator: TA1535, Metabolic Activation: NONE, Method: PREINCUBATION inactive; negative | Test System: AMES SALMONELLA TYPHIMURIUM, Strain/Indicator: TA1535, Metabolic Activation: NONE, Method: STANDARD PLATE inactive; negative | Test System: AMES SALMONELLA TYPHIMURIUM, Strain/Indicator: TA1535, Metabolic Activation: RAT LIVER S-9, PHENOBARBITAL AND BETA-NAPHTHOFLAVONE, Method: PREINCUBATION inactive; negative | Test System: AMES SALMONELLA TYPHIMURIUM, Strain/Indicator: TA1535, Metabolic Activation: RAT, LIVER, S-9, AROCLOR 1254 (10%), Method: PREINCUBATION inactive; negative | Test System: AMES SALMONELLA TYPHIMURIUM, Strain/Indicator: TA1535, Metabolic Activation: RAT, LIVER, S-9, AROCLOR 1254, Method: STANDARD PLATE inactive; negative | Test System: AMES SALMONELLA TYPHIMURIUM, Strain/Indicator: TA1535, Metabolic Activation: RAT, LIVER, S-9, SODIUM PHENOBARBITAL, Method: STANDARD PLATE inactive; negative | Test System: AMES SALMONELLA TYPHIMURIUM, Strain/Indicator: TA1537, Metabolic Activation: HAMSTER, LIVER, S-9, AROCLOR 1254 (10%), Method: PREINCUBATION inactive; negative | Test System: AMES SALMONELLA TYPHIMURIUM, Strain/Indicator: TA1537, Metabolic Activation: NONE, Method: PREINCUBATION inactive; negative | Test System: AMES SALMONELLA TYPHIMURIUM, Strain/Indicator: TA1537, Metabolic Activation: NONE, Method: STANDARD PLATE inactive; negative | Test System: AMES SALMONELLA TYPHIMURIUM, Strain/Indicator: TA1537, Metabolic Activation: RAT LIVER S-9, PHENOBARBITAL AND BETA-NAPHTHOFLAVONE, Method: PREINCUBATION inactive; negative | Test System: AMES SALMONELLA TYPHIMURIUM, Strain/Indicator: TA1537, Metabolic Activation: RAT, LIVER, S-9, AROCLOR 1254 (10%), Method: PREINCUBATION inactive; negative | Test System: AMES SALMONELLA TYPHIMURIUM, Strain/Indicator: TA1537, Metabolic Activation: RAT, LIVER, S-9, AROCLOR 1254, Method: STANDARD PLATE inactive; negative | Test System: AMES SALMONELLA TYPHIMURIUM, Strain/Indicator: TA1537, Metabolic Activation: RAT, LIVER, S-9, SODIUM PHENOBARBITAL, Method: STANDARD PLATE inactive; negative | Test System: AMES SALMONELLA TYPHIMURIUM, Strain/Indicator: TA1538, Metabolic Activation: NONE, Method: STANDARD PLATE inactive; negative | Test System: AMES SALMONELLA TYPHIMURIUM, Strain/Indicator: TA1538, Metabolic Activation: RAT, LIVER, S-9, AROCLOR 1254, Method: STANDARD PLATE inactive; negative | Test System: AMES SALMONELLA TYPHIMURIUM, Strain/Indicator: TA1538, Metabolic Activation: RAT, LIVER, S-9, SODIUM PHENOBARBITAL, Method: STANDARD PLATE inactive; negative | Test System: E.COLI, Strain/Indicator: WP2UVRA/PKM101, Metabolic Activation: NONE, Method: PREINCUBATION inactive; negative | Test System: E.COLI, Strain/Indicator: WP2UVRA/PKM101, Metabolic Activation: RAT LIVER S-9, PHENOBARBITAL AND BETA-NAPHTHOFLAVONE, Method: PREINCUBATION inactive; negative
